Data from article PMC6017873 (Molecules : A Journal of Synthetic Chemistry and Natural …, 2018).
“And” between values parts separate entries of the source, which are not always exact repeats. Equal values may be shown once.

How the values were obtained:
HDAC2 = HDAC2 (Homo sapiens, UniProt Q92769); assay: Selective in vitro HDAC activity assay, recombinant HDAC2; assay type: biochemical; settings: 100 µM
Procedure: (§1) (a) In vitro total HDAC activity was evaluated using K-562 nuclear extracts in the presence of various concentrations of eurochevalierine. (b) Selective in vitro HDAC activity assays were carried out using selected recombinant HDAC proteins in the presence of various concentrations of eurochevalierine. Results are reported as percent of DMSO vehicle control and expressed as the mean ± SD of three independent experiments. * and ** indicate p < 0.05 and p < 0.01 versus untreated cells, respectively.

HDAC6 = target: T1, HDAC6 (Homo sapiens, UniProt Q9UBN7); assay: Selective in vitro HDAC activity assay, recombinant HDAC6; assay type: biochemical
T1 sequence (Q9UBN7 1-1215): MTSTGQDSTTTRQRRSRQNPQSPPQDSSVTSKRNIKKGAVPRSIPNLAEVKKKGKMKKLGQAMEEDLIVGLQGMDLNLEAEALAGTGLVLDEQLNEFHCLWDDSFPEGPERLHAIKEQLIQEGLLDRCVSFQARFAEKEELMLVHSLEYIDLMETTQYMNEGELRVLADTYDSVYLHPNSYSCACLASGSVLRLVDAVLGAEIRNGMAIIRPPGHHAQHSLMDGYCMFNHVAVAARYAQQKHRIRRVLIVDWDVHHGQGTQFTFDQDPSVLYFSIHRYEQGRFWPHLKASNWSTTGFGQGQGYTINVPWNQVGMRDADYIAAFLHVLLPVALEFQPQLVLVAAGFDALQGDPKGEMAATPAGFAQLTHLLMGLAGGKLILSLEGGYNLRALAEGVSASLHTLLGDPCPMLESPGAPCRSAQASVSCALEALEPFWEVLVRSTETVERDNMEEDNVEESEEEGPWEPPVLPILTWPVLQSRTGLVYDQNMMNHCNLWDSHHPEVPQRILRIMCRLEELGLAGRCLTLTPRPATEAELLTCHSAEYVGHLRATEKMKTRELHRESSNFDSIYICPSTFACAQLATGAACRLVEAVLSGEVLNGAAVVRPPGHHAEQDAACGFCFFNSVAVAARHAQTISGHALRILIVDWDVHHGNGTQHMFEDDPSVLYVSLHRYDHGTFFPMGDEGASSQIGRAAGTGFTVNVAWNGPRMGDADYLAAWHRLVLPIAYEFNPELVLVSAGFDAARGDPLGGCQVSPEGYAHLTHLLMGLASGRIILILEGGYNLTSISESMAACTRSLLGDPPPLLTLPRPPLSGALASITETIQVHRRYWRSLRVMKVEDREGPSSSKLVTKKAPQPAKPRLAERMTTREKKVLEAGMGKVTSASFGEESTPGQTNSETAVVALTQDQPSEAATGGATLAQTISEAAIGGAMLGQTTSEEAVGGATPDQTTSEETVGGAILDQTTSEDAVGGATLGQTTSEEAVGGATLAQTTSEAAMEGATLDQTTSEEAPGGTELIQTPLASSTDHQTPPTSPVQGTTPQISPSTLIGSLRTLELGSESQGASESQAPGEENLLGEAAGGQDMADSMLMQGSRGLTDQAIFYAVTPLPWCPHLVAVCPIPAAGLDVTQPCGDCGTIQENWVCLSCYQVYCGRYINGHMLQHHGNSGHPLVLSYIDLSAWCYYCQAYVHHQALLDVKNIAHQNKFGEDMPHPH
Procedure: as §1

HDAC11 = target: T2, HDAC11 (Homo sapiens, UniProt Q96DB2); assay: Selective in vitro HDAC activity assay, recombinant HDAC11; assay type: biochemical
T2 sequence (Q96DB2 1-347): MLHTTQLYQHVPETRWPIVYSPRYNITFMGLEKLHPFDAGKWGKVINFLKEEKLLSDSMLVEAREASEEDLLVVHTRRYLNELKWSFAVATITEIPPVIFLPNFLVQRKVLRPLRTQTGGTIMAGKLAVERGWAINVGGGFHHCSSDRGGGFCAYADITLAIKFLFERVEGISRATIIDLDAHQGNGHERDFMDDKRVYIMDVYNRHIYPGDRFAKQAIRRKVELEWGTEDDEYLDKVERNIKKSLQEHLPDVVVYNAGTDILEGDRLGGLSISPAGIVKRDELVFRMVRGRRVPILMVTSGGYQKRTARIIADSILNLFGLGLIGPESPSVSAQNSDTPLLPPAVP
Procedure: as §1

[1] = tested on: PBMCs from healthy donors; assay: Viability of PBMCs from healthy donors (Trypan Blue exclusion); assay type: cell-based; settings: up to 48 h, up to 100 µM
Procedure: The viability of PBMCs from healthy donors was assessed after 24 and 48 h of treatment at the indicated concentration of eurochevalierine. Results correspond to mean ± SD of three independent experiments.
PBMCs were isolated as previously reported.
PBMCs and CD34^+ cells were processed through a semi-automated image-based cell analyzer (Cedex XS Innovatis, Roche, Luxembourg), which provides information about cell concentration and viability based on the Trypan Blue exclusion method.

[2] = tested on: panel of cancer cell lines; set-up: method as in PMID 22976482; settings: read-out: mean IC50 for the growth inhibition of cancer cells; cited from earlier work
SIRT1 = target: T3, SIRT1 (Homo sapiens, UniProt Q96EB6); assay: In vitro SIRT1 activity assay; settings: IC50 SIRT1, mean ± SD of three independent experiments
T3 sequence (Q96EB6 1-747): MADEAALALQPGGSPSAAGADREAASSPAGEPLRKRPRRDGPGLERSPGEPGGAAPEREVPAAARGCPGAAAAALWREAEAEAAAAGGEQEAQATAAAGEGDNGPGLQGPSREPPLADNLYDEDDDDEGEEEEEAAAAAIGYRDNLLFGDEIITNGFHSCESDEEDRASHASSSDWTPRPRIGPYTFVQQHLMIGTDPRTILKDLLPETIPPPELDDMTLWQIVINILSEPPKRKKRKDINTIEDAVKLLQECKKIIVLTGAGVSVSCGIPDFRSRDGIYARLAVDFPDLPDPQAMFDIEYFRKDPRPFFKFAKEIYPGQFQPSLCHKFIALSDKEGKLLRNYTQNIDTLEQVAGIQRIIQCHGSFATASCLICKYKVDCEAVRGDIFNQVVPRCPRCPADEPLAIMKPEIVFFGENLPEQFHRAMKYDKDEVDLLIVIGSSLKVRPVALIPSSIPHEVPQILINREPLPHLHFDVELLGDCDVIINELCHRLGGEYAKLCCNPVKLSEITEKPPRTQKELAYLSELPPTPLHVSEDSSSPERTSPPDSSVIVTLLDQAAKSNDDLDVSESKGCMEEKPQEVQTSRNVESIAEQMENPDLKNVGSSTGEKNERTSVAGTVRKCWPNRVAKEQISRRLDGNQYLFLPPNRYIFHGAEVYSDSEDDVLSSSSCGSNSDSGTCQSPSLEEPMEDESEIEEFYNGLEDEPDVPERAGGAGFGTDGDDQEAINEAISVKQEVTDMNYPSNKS

Chain of HDAC2 (Q92769 whole entry): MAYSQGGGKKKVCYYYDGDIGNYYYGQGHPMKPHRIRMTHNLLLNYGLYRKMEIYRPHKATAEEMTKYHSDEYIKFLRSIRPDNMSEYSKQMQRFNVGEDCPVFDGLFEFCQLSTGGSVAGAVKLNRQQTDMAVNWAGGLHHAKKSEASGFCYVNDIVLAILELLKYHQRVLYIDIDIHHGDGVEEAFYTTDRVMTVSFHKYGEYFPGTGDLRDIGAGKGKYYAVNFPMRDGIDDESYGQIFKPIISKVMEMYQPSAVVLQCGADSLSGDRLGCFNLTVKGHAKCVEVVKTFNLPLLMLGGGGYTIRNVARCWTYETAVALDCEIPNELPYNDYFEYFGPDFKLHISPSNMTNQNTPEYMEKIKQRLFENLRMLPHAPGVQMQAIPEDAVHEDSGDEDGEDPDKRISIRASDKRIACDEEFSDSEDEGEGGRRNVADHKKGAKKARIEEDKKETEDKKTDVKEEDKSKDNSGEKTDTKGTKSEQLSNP

## C=C(C)[C@@H]1CC[C@@H](C)[C@@]2(O)[C@@H]1C=C(C)[C@@H](OC(C)=O)[C@@H]2OC(=O)[C@H](CC(=O)c1ccccc1NC)NC=O [Eurochevalierine, eurochevalierine]
HDAC2
  effect on HDAC2 deacetylase activity: without effect
HDAC6
  inhibition at 100 µM: ~36%
HDAC11
  inhibition at 100 µM: ~51%
[1]
  acute toxicity on viability of PBMCs: does not trigger any acute toxicity
[2]
  IC50: 28 µM
SIRT1
  IC50: ~10 µM and 9.8 µM
